Experimental data reported in ChEMBL document CHEMBL3885881, “DrugMatrix”.

Species: Rattus norvegicus
Experiment: DrugMatrix - Regimen: Daily Repeat
Assay type: toxicity, organism-based, Sprague-Dawley
Set-up: regimen Daily Repeat, gender Male, age 6-8 weeks
Details: in vivo, po, route oral GAVAGE, vehicle 100 % WATER; for ABSOLUTE BASOPHIL / ABSOLUTE EOSINOPHIL / ABSOLUTE LYMPHOCYTE / ABSOLUTE MONOCYTE / ABSOLUTE SEGMENTED NEUTROPHIL / BASOPHIL / EOSINOPHIL / ERYTHROCYTE COUNT / HEMATOCRIT / HEMOGLOBIN / LEUKOCYTE COUNT / LYMPHOCYTE / MEAN CORPUSCULAR HEMOGLOBIN / MEAN CORPUSCULAR HEMOGLOBIN CONCENTRATION / MEAN CORPUSCULAR VOLUME / MONOCYTE / NEUTROPHIL / NUCLEATED RED BLOOD CELLS / PLATELET COUNT: tissue Blood; for ALANINE AMINOTRANSFERASE / ALBUMIN / ALKALINE PHOSPHATASE / ASPARTATE AMINOTRANSFERASE / BLOOD UREA NITROGEN / CARBON DIOXIDE / CHLORIDE / CHOLESTEROL / CREATINE PHOSPHOKINASE / CREATININE / GLUCOSE / LACTATE DEHYDROGENASE / LIPASE / PHOSPHORUS / POTASSIUM / SODIUM / TOTAL BILIRUBIN / TOTAL PROTEIN / URIC ACID: tissue Plasma
[1] = 1 mg/kg, 72 h, dose level Low, time 3 day
[2] = 1 mg/kg, 120 h, dose level Low, time 5 day
[3] = 84 mg/kg, 72 h, dose level High, time 3 day
[4] = 84 mg/kg, 120 h, dose level High, time 5 day

Cc1nccn1CC1CCc2c(c3ccccc3n2C)C1=O (configuration not stated) [ONDANSETRON]
ABSOLUTE BASOPHIL [1]: 0 CELLS/uL
ABSOLUTE EOSINOPHIL [1]: 0 CELLS/uL
ABSOLUTE LYMPHOCYTE [1]: 12419.33 CELLS/uL
ABSOLUTE MONOCYTE [1]: 325.33 CELLS/uL
ABSOLUTE SEGMENTED NEUTROPHIL [1]: 1155.33 CELLS/uL
BASOPHIL [1]: 0%
EOSINOPHIL [1]: 0%
ERYTHROCYTE COUNT [1]: 5.53 x10E6/uL
HEMATOCRIT [1]: 34.87%
HEMOGLOBIN [1]: 13.27 G/DL
LEUKOCYTE COUNT [1]: 13.9 x10E3/uL
LYMPHOCYTE [1]: 89.33%
MEAN CORPUSCULAR HEMOGLOBIN [1]: 24 pg
MEAN CORPUSCULAR HEMOGLOBIN CONCENTRATION [1]: 38.07 G/DL
MEAN CORPUSCULAR VOLUME [1]: 63.03 fL
MONOCYTE [1]: 2.33%
NEUTROPHIL [1]: 8.33%
NUCLEATED RED BLOOD CELLS [1]: 0 /100WBC
PLATELET COUNT [1]: 1205.67 x10E3/uL
ALANINE AMINOTRANSFERASE [1]: 50.33 u/L
ALBUMIN [1]: 4.1 G/DL
ALKALINE PHOSPHATASE [1]: 392.33 u/L
ASPARTATE AMINOTRANSFERASE [1]: 92 u/L
BLOOD UREA NITROGEN [1]: 15.67 mg/dL
CARBON DIOXIDE [1]: 24.33 mmol/L
CHLORIDE [1]: 104 MEQ/L
CHOLESTEROL [1]: 74.33 mg/dL
CREATINE PHOSPHOKINASE [1]: 345 u/L
CREATININE [1]: 0.17 mg/dL
GLUCOSE [1]: 165.33 mg/dL
LACTATE DEHYDROGENASE [1]: 421 u/L
LIPASE [1]: 9.67 u/L
PHOSPHORUS [1]: 14.47 mg/dL
POTASSIUM [1]: 6.65 MEQ/L
SODIUM [1]: 147.47 MEQ/L
TOTAL BILIRUBIN [1]: 0.17 mg/dL
TOTAL PROTEIN [1]: 5.77 G/DL
URIC ACID [1]: 1.8 mg/dL
ABSOLUTE BASOPHIL [2]: 0 CELLS/uL
ABSOLUTE EOSINOPHIL [2]: 0 CELLS/uL
ABSOLUTE LYMPHOCYTE [2]: 15703.33 CELLS/uL
ABSOLUTE MONOCYTE [2]: 57.67 CELLS/uL
ABSOLUTE SEGMENTED NEUTROPHIL [2]: 1439 CELLS/uL
BASOPHIL [2]: 0%
EOSINOPHIL [2]: 0%
ERYTHROCYTE COUNT [2]: 5.66 x10E6/uL
HEMATOCRIT [2]: 36.67%
HEMOGLOBIN [2]: 14.17 G/DL
LEUKOCYTE COUNT [2]: 17.2 x10E3/uL
LYMPHOCYTE [2]: 91.33%
MEAN CORPUSCULAR HEMOGLOBIN [2]: 25.07 pg
MEAN CORPUSCULAR HEMOGLOBIN CONCENTRATION [2]: 38.6 G/DL
MEAN CORPUSCULAR VOLUME [2]: 64.9 fL
MONOCYTE [2]: 0.33%
NEUTROPHIL [2]: 8.33%
NUCLEATED RED BLOOD CELLS [2]: 0 /100WBC
PLATELET COUNT [2]: 1456 x10E3/uL
ALANINE AMINOTRANSFERASE [2]: 55 u/L
ALBUMIN [2]: 4.43 G/DL
ALKALINE PHOSPHATASE [2]: 362 u/L
ASPARTATE AMINOTRANSFERASE [2]: 77.33 u/L
BLOOD UREA NITROGEN [2]: 17 mg/dL
CARBON DIOXIDE [2]: 29 mmol/L
CHLORIDE [2]: 100.33 MEQ/L
CHOLESTEROL [2]: 72 mg/dL
CREATINE PHOSPHOKINASE [2]: 162.67 u/L
CREATININE [2]: 0.18 mg/dL
GLUCOSE [2]: 160.33 mg/dL
LACTATE DEHYDROGENASE [2]: 160.67 u/L
LIPASE [2]: 10.33 u/L
PHOSPHORUS [2]: 14.4 mg/dL
POTASSIUM [2]: 6.83 MEQ/L
SODIUM [2]: 146.07 MEQ/L
TOTAL BILIRUBIN [2]: 0.2 mg/dL
TOTAL PROTEIN [2]: 6.17 G/DL
URIC ACID [2]: 1.7 mg/dL
ABSOLUTE BASOPHIL [3]: 0 CELLS/uL
ABSOLUTE EOSINOPHIL [3]: 113.33 CELLS/uL
ABSOLUTE LYMPHOCYTE [3]: 15932.67 CELLS/uL
ABSOLUTE MONOCYTE [3]: 298.67 CELLS/uL
ABSOLUTE SEGMENTED NEUTROPHIL [3]: 1422 CELLS/uL
BASOPHIL [3]: 0%
EOSINOPHIL [3]: 0.67%
ERYTHROCYTE COUNT [3]: 5.63 x10E6/uL
HEMATOCRIT [3]: 35.6%
HEMOGLOBIN [3]: 14.17 G/DL
LEUKOCYTE COUNT [3]: 17.77 x10E3/uL
LYMPHOCYTE [3]: 90%
MEAN CORPUSCULAR HEMOGLOBIN [3]: 25.3 pg
MEAN CORPUSCULAR HEMOGLOBIN CONCENTRATION [3]: 39.83 G/DL
MEAN CORPUSCULAR VOLUME [3]: 63.53 fL
MONOCYTE [3]: 1.67%
NEUTROPHIL [3]: 7.67%
NUCLEATED RED BLOOD CELLS [3]: 0 /100WBC
PLATELET COUNT [3]: 1296 x10E3/uL
ALANINE AMINOTRANSFERASE [3]: 62.67 u/L
ALBUMIN [3]: 4.27 G/DL
ALKALINE PHOSPHATASE [3]: 366.67 u/L
ASPARTATE AMINOTRANSFERASE [3]: 100.67 u/L
BLOOD UREA NITROGEN [3]: 14.67 mg/dL
CARBON DIOXIDE [3]: 26.67 mmol/L
CHLORIDE [3]: 101.33 MEQ/L
CHOLESTEROL [3]: 73.67 mg/dL
CREATINE PHOSPHOKINASE [3]: 312.67 u/L
CREATININE [3]: 0.28 mg/dL
GLUCOSE [3]: 150 mg/dL
LACTATE DEHYDROGENASE [3]: 488.67 u/L
LIPASE [3]: 9.67 u/L
PHOSPHORUS [3]: 13.83 mg/dL
POTASSIUM [3]: 7.1 MEQ/L
SODIUM [3]: 145.17 MEQ/L
TOTAL BILIRUBIN [3]: 0.17 mg/dL
TOTAL PROTEIN [3]: 5.87 G/DL
URIC ACID [3]: 1.77 mg/dL
ABSOLUTE BASOPHIL [4]: 0 CELLS/uL
ABSOLUTE EOSINOPHIL [4]: 0 CELLS/uL
ABSOLUTE LYMPHOCYTE [4]: 12972 CELLS/uL
ABSOLUTE MONOCYTE [4]: 0 CELLS/uL
ABSOLUTE SEGMENTED NEUTROPHIL [4]: 828 CELLS/uL
BASOPHIL [4]: 0%
EOSINOPHIL [4]: 0%
ERYTHROCYTE COUNT [4]: 5.39 x10E6/uL
HEMATOCRIT [4]: 33.4%
HEMOGLOBIN [4]: 13.9 G/DL
LEUKOCYTE COUNT [4]: 13.8 x10E3/uL
LYMPHOCYTE [4]: 94%
MEAN CORPUSCULAR HEMOGLOBIN [4]: 25.8 pg
MEAN CORPUSCULAR HEMOGLOBIN CONCENTRATION [4]: 41.6 G/DL
MEAN CORPUSCULAR VOLUME [4]: 61.9 fL
MONOCYTE [4]: 0%
NEUTROPHIL [4]: 6%
NUCLEATED RED BLOOD CELLS [4]: 0 /100WBC
PLATELET COUNT [4]: 1460 x10E3/uL
ALANINE AMINOTRANSFERASE [4]: 63 u/L
ALBUMIN [4]: 4.2 G/DL
ALKALINE PHOSPHATASE [4]: 265 u/L
ASPARTATE AMINOTRANSFERASE [4]: 62 u/L
BLOOD UREA NITROGEN [4]: 20 mg/dL
CARBON DIOXIDE [4]: 30 mmol/L
CHLORIDE [4]: 103 MEQ/L
CHOLESTEROL [4]: 69 mg/dL
CREATINE PHOSPHOKINASE [4]: 151 u/L
CREATININE [4]: 0.29 mg/dL
GLUCOSE [4]: 150 mg/dL
LACTATE DEHYDROGENASE [4]: 89 u/L
LIPASE [4]: 10 u/L
PHOSPHORUS [4]: 11.8 mg/dL
POTASSIUM [4]: 6.81 MEQ/L
SODIUM [4]: 145.9 MEQ/L
TOTAL BILIRUBIN [4]: 0.1 mg/dL
TOTAL PROTEIN [4]: 6.2 G/DL
URIC ACID [4]: 1.4 mg/dL
